Measurements from ChEMBL document CHEMBL1149939, “Potential anxiolytic agents. 2. Improvement of oral efficacy for the pyrido[1,2-a]benzimidazole (PBI) class of GABA-A receptor modulators” (Bioorg Med Chem Lett, 1996).
Values joined by “and” are separate entries in the source; they are usually repeats but may differ in a detail not shown here. Equal entries are not always repeated.

Experiments:
[1] = molecular target: GABA-A receptor; anion channel; test: Binding affinity against the BZD site of the Gamma-aminobutyric acid A receptor in rat cerebral cortex using radioligand ([3H]flunitrazepam) assay in the absence of Gamma-aminobutyric acid; type: tissue-based
[2] = molecular target: GABA-A receptor; anion channel; test: Binding affinity against the BZD site of the Gamma-aminobutyric acid A receptor in rat cerebral cortex using radioligand ([3H]flunitrazepam) assay in the presence of Gamma-aminobutyric acid; type: tissue-based
[3] = molecular target: T1, GABA-A receptor; anion channel (Rattus norvegicus) (UniProt O09028+P15431+P18506+P18508+P19969+P20236+P23574+P23576+P28471+P28473+P30191+P62813+P63079+P63138+Q91ZM7+Q9ES14); test: Relative binding in the presence and absence of GABA, (IC50-GABA /IC50+GABA); type: protein-complex assay
Rattus norvegicus [4] = species: Rattus norvegicus; test: Compound was tested for its ability to release (i.e., disinhibit) behavior that had been suppressed by punishment in rats (vogel conflict test).; type: functional; details: read-out: MED
Mus sp. = species: Mus sp.; test: Test ability to block the tonic-clonic component of seizures induced by metrazole in mice.; type: functional
[5] = Tested for skeletal muscle relaxant activity using horizontal screen assay.; type: functional
Rattus norvegicus [6] = species: Rattus norvegicus; test: The compound was tested for its ability to release (i.e., disinhibit) behavior that had been suppressed by punishment in rats (vogel conflict test).; type: functional; details: read-out: MED
Mus musculus = species: Mus musculus; test: Compound was tested for its ability to block the tonic-clonic component of seizures induced by metrazole in mice; Range = 10-30; type: functional
[7] = molecular target: T1, GABA-A receptor; anion channel (Rattus norvegicus); test: Ratio of IC50 (no GABA) to IC50 (GABA) was measured as GABA Shift (GS); type: protein-complex assay
[8] = Tested for its interaction with ethanol by its ability to potentiate the effect of ethanol on sleep.; type: functional; details: read-out: MED
Rattus norvegicus [9] = species: Rattus norvegicus; test: animal or person; details: read-out: MED
Rattus norvegicus [10] = species: Rattus norvegicus; test: animal or person; details: read-out: MED; remark: listed apart in the source

Row | SMILES | IC50 [1] [nM] | IC50 [2] [nM] | ED50 (Mus sp.; Mus sp., read-out: ED50) [mg/kg] | GABA shift [7] | other results
1 | Nc1ccccc1NC(=O)C1=C(O)CCn2c1nc1ccccc12 | 50 | 33 | – | – | GABA shift [3]: 1.5
2 | O=C1CCN2C(=C1C(=O)Nc1ccccc1)Nc1ccccc12 | – | – | 5.2 | – | minimal effective dose (Rattus norvegicus [4]): > 10 mg/kg; ED50 [5]: >30 mg/kg and 10 mg/kg; minimal effective dose (Rattus norvegicus [6]): 10 mg/kg; GABA shift [3]: 1.5; ED50 (Mus musculus): 10 mg/kg
3 | CN(C)c1ccc(NC(=O)C2=C(O)CCn3c2nc2ccccc23)c(F)c1 | 120 | 87 | – | 1.4 | –
4 | O=C(Nc1cnccn1)C1=C(O)CCn2c1nc1ccccc12 | 360 | 400 | > 10 | 0.9 | –
5 | O=C(Nc1ccc(O)cc1)C1=C(O)CCn2c1nc1ccccc12 | 46 | 31 | – | – | ED50 (Mus sp.): >30 mg/kg and 10 mg/kg; GABA shift [3]: 1.5
6 | O=C(NCc1cccnc1)C1=C(O)CCn2c1nc1ccccc12 | 150 | 140 | > 10 | 1.1 | –
7 | C[n+]1ccc(NC(=O)C2=C(O)CCn3c2nc2ccccc23)cc1 | 6300 | 3100 | > 10 | 2 | –
8 | O=C(Nc1ccncc1F)C1=C(O)CCn2c1nc1ccccc12 | 53 | 20 | – | 2.6 | –
9 | CN(C)c1ccc(NC(=O)C2=C(O)CCn3c2nc2ccccc23)cc1 | 270 | 210 | – | 1.2 | minimal effective dose (Rattus norvegicus [4]): 10 mg/kg; ED50 [5]: >30 mg/kg and 10 mg/kg; minimal effective dose (Rattus norvegicus [6]): 3 mg/kg
10 | CN(C)c1cccc(NC(=O)C2=C(O)CCn3c2nc2ccccc23)c1 | 37 | 25 | – | 1.5 | –
11 | O=C(Nc1ccncc1)c1c(O)ccn2c1nc1ccccc12 | 260 | 150 | > 10 | 1.7 | –
12 | O=C(Nc1ccncc1Cl)C1=C(O)CCn2c1nc1ccccc12 | 220 | 100 | – | 2.2 | –
13 | Nc1ccc(NC(=O)C2=C(O)CCn3c2nc2ccccc23)cc1 | 13000 | 3400 | – | 3.8 | –
14 | O=C(Nc1ccccn1)C1=C(O)CCn2c1nc1ccccc12 | 59 | 36 | 11.2 | 1.7 | ED50 (Mus sp.): 10 mg/kg
15 | O=C(Nc1ccncc1)C1=C(O)CCn2c1nc1ccccc12 | 160 | 78 | – | 2.1 | minimal effective dose (Rattus norvegicus [4]): 10 mg/kg; ED50 (Mus sp.): 3.1 mg/kg and 7.8 mg/kg; ED50 ([5]; read-out: ED50): > 30 mg/kg; minimal effective dose [8]: > 60 mg/kg; minimal effective dose (Rattus norvegicus [6]): 3 mg/kg
16 | O=C(Nc1ccnc(Cl)c1)C1=C(O)CCn2c1nc1ccccc12 | 68 | 65 | – | 1.1 | ED50 (Mus sp.): 3.7 mg/kg and 10 mg/kg
17 | O=C(Nc1cccnc1)C1=C(O)CCn2c1nc1ccccc12 | 51 | 48 | – | 1.1 | –
18 | CN1C(=O)CN=C(c2ccccc2)c2cc(Cl)ccc21 [DIAZEPAM] | – | – | – | – | ED50 (Mus sp.): 0.11 mg/kg and 0.3 mg/kg; minimal effective dose (Rattus norvegicus [9]): 5 mg/kg; minimal effective dose (Rattus norvegicus [10]): 5 mg/kg
19 | CN(C)c1ccc(NC(=O)C2=C3N(C)c4ccccc4N3CCC2=O)cc1 | 29 | 16 | – | – | GABA shift [3]: 1.8
20 | O=C(Nc1ncccn1)C1=C(O)CCn2c1nc1ccccc12 | 54 | 50 | – | 1.1 | –
21 | O=C(Nc1ccncn1)C1=C(O)CCn2c1nc1ccccc12 | 480 | 370 | > 10 | 1.3 | ED50 (Mus sp.): 10 mg/kg
22 | CN(C)c1ccccc1NC(=O)C1=C(O)CCn2c1nc1ccccc12 | 10000 | – | – | – | ED50 (Mus sp.): 4.9 mg/kg and 10 mg/kg
23 | O=C(Nc1ccc(C(=O)O)cc1)C1=C(O)CCn2c1nc1ccccc12 | > 10000 | > 10000 | – | – | ED50 (Mus sp.): >30 mg/kg and 10 mg/kg
24 | CCN1C2=C(C(=O)Nc3ccncc3)C(=O)CCN2c2ccccc21 | 80 | 27 | – | 3 | minimal effective dose (Rattus norvegicus [4]): 3 mg/kg; minimal effective dose [8]: 10 mg/kg; minimal effective dose (Rattus norvegicus [6]): 3 mg/kg
25 | Cc1cc(N(C)C)ccc1NC(=O)C1=C(O)CCn2c1nc1ccccc12 | 4000 | 1500 | – | 2.7 | –
26 | Cc1cnccc1NC(=O)C1=C(O)CCn2c1nc1ccccc12 | 7100 | 12000 | > 10 | 0.6 | –
27 | O=C(NCc1ccncc1)C1=C(O)CCn2c1nc1ccccc12 | 65 | 69 | > 10 | 0.9 | –
